# Experimental data published in US7598244B2, “[1,2,4]triazolo[1,5,a]pyrimidin-2-ylurea derivative and use thereof” (Nippon Kayaku Kabushiki Kaisha, priority 2003, dated 2009).
# Test system: MHC class I molecules of T1 cells (human lymphoma cell line 174×CEM.)
# Assay: Effect on expression of MHC class I from T1 cells (flow cytometry, MFI)
# Type: cell-based
# Conditions: 3 days culture
# Method: Effect on Expression of MHC Class I from T1 Cells (Human Lymphoma Cell Line 174×CEM.)
# Using a 96-well flat bottom microplate, T1 cells (5.7×10^3 cells/200 μl/well) were cultured in an RPMI 1640 medium (Iwaki Glass) containing 10% fetal bovine serum (hereinafter abbreviated as FBS; Iruvine Scientific) in an incubator containing 5% carbon dioxide at 37° C. for 3 days, in the presence of a test compound having each concentration obtained by dilution at a common ratio route of 10 from 400 μM. After completion of the culture, the cells were stained with fluoroisothiocyanate-labeled mouse anti-human MHC class I monoclonal antibody (an antibody produced from the cell line W6/32 (ATCC No. CRL 1991)). The mean fluorescence intensity of the stained cells (hereinafter referred to as MFI) was measured using flow cytometry FACScan (BD). The obtained value was defined as an expression level of MHC class I molecules. A test compound concentration necessary for suppressing 20% of the expression level of MHC class I molecules (EC20 value) was calculated using the following formula (1).
# [formula] • Eexp: MFI of cultured cells containing test compound after being stained with antibody • Cexp: MFI of cultured cells containing no test compounds after being stained with antibody
row,SMILES,EC20 (concentration necessary for suppressing 20% of the expression level of MHC class I molecules) [µM]
1,CCC(C)NC(=O)Nc1nc2nccc(-c3ccc(OC)cc3)n2n1 (stereo not shown) [Example 100],0.32
2,COc1ccc(-c2ccnc3nc(NC(=O)NCCCc4ccccc4)nn23)cc1 [Example 102],0.19
3,COc1ccc(-c2ccnc3nc(NC(=O)NCc4ccncc4)nn23)cc1 [Example 103],0.62
4,COc1ccc(-c2ccnc3nc(NC(=O)NCCc4cccnc4)nn23)cc1 [Example 104],0.43
5,COCCCNC(=O)Nc1nc2nccc(-c3ccc(OC)cc3)n2n1 [Example 106],0.51
6,CC(C)COc1cccc(-c2ccnc3nc(NC(=O)NC4CCCCC4)nn23)c1 [Example 108],0.13
7,COc1ccc(-c2ccnc3nc(NC(=O)NCCC(=O)OC(C)(C)C)nn23)cc1 [Example 109],0.11
8,COc1ccc(-c2ccnc3nc(NC(=O)NCC(=O)OC(C)(C)C)nn23)cc1 [Example 110],0.79
9,COc1ccc(-c2ccnc3nc(NC(=O)N[C@@H](Cc4ccccc4)C(=O)OC(C)(C)C)nn23)cc1 [Example 112],0.85
10,O=C(Nc1nc2nccc(-c3cccc(OCc4ccccc4)c3)n2n1)NC1CCCCC1 [Example 115],0.6
11,COc1ccc(-c2ccnc3nc(NC(=O)N[C@H](C(=O)NCCc4ccncc4)C(C)C)nn23)cc1 [Example 116],0.57
12,COc1ccc(-c2ccnc3nc(NC(=O)N[C@@H](C)C(=O)Nc4ccccc4)nn23)cc1 [Example 117],0.19
13,COc1ccc(-c2ccnc3nc(NC(=O)N[C@@H](C)C(=O)N4CCOCC4)nn23)cc1 [Example 118],0.61
14,COc1ccc(-c2ccnc3nc(NC(=O)N[C@@H](C)C(=O)NCc4ccccc4)nn23)cc1 [Example 119],0.21
15,COc1ccc(-c2ccnc3nc(NC(=O)N[C@@H](C)C(=O)NC4CCCCC4)nn23)cc1 [Example 120],0.25
16,COc1ccc(-c2ccnc3nc(NC(=O)N[C@@H](C)C(=O)NCC4CCCCC4)nn23)cc1 [Example 121],0.17
17,COC(=O)[C@H](C)NC(=O)[C@H](C)NC(=O)Nc1nc2nccc(-c3ccc(OC)cc3)n2n1 [Example 122],0.34
18,COc1ccc(-c2ccnc3nc(NC(=O)N[C@@H](C)C(=O)N4CCN(C)CC4)nn23)cc1 [Example 123],0.48
19,COc1ccc(-c2ccnc3nc(NC(=O)N[C@@H](C)C(=O)NCc4ccccn4)nn23)cc1 [Example 124],0.21
20,COc1ccc(-c2ccnc3nc(NC(=O)N[C@@H](C)C(=O)NCCN4CCCCC4)nn23)cc1.Cl [Example 125],0.82
21,COC(=O)[C@@H](C)NC(=O)Nc1nc2nccc(-c3ccc(OC)cc3)n2n1 [Example 126],0.32
22,COc1ccc(-c2ccnc3nc(NC(=O)N[C@@H](C)CCc4ccccc4)nn23)cc1 [Example 127],0.08
23,CCC(CC)NC(=O)Nc1nc2nccc(-c3ccc(OC)cc3)n2n1 [Example 128],0.54
24,COc1ccc(-c2ccnc3nc(NC(=O)N[C@@H](C)c4ccc(Br)cc4)nn23)cc1 [Example 129],0.18
25,CC[C@H](NC(=O)Nc1nc2nccc(-c3ccc(OC)cc3)n2n1)c1ccccc1 [Example 130],0.13
26,COc1ccc(-c2ccnc3nc(NC(=O)N[C@@H](C)c4ccc(OC)cc4)nn23)cc1 [Example 133],0.19
27,COc1ccc(-c2ccnc3nc(NC(=O)N[C@H]4CCCc5ccccc54)nn23)cc1 [Example 134],0.05
28,CCOC(=O)N1CCC(NC(=O)Nc2nc3nccc(-c4ccc(OC)cc4)n3n2)CC1 [Example 138],0.15

row,SMILES,EC20 (concentration necessary for suppressing 20% of the expression level of MHC class I molecules) [µM]
1,COc1ccc(-c2ccnc3nc(NC(=O)N[C@@H](C)c4ccc([N+](=O)[O-])cc4)nn23)cc1 [Example 139],0.13
2,COc1ccc(-c2ccnc3nc(NC(=O)NC4C5CC6CC(C5)CC4C6)nn23)cc1 (stereo not shown) [Example 143],0.74
3,COc1ccc(-c2ccnc3nc(NC(=O)NCC(=O)Nc4ccccc4)nn23)cc1 [Example 144],0.46
4,CC[C@H](NC(=O)Nc1nc2nccc(-c3ccc(OC)cc3)n2n1)C(=O)Nc1ccccc1 [Example 148],0.26
5,CC[C@H](NC(=O)Nc1nc2nccc(-c3ccc(OC)cc3)n2n1)C(=O)N1CCOCC1 [Example 149],0.63
6,CC[C@H](NC(=O)Nc1nc2nccc(-c3ccc(OC)cc3)n2n1)C(=O)NC(C)C(=O)OC (stereo partly shown) [Example 150],0.71
7,CCC[C@H](NC(=O)Nc1nc2nccc(-c3ccc(OC)cc3)n2n1)C(=O)Nc1ccccc1 [Example 151],0.22
8,CCC[C@H](NC(=O)Nc1nc2nccc(-c3ccc(OC)cc3)n2n1)C(=O)N1CCOCC1 [Example 152],0.78
9,COc1ccc(-c2ccnc3nc(NC(=O)NCCC(=O)Nc4ccccc4)nn23)cc1 [Example 156],0.05
10,C[C@H](NC(=O)Nc1nc2nccc(-c3cccs3)n2n1)c1ccccc1 [Example 165],0.3
11,COC(=O)C1CCC(NC(=O)Nc2nc3nccc(-c4ccc(OC)cc4)n3n2)CC1 (stereo not shown) [Example 167],0.2
12,COC(=O)C1CCCC(NC(=O)Nc2nc3nccc(-c4ccc(OC)cc4)n3n2)C1 (stereo not shown) [Example 168],0.67
13,COc1ccc(-c2ccnc3nc(NC(=O)NC4CCC(C(=O)N(C)C)CC4)nn23)cc1 (stereo not shown) [Example 169],0.66
14,O=C(Nc1nc2nccc(-c3cccc(OCc4cccnc4)c3)n2n1)NC1CCCCC1 [Example 170],0.25
15,O=C(Nc1nc2nccc(-c3cccc(OCc4ccncc4)c3)n2n1)NC1CCCCC1 [Example 171],0.29
16,CC(C)COc1cccc(-c2ccnc3nc(NC(=O)NC(C)C)nn23)c1 [Example 172],0.24
17,CNC(=O)C1CCCC(NC(=O)Nc2nc3nccc(-c4ccc(OC)cc4)n3n2)C1 (stereo not shown) [Example 174],0.33
18,COc1ccc(-c2ccnc3nc(NC(=O)NC4CCCC(C(=O)N(C)C)C4)nn23)cc1 (stereo not shown) [Example 175],0.3
19,COc1ccc([C@H](C)NC(=O)Nc2nc3nccc(-c4cccs4)n3n2)cc1 [Example 176],0.2
20,CC(C)NC(=O)Nc1nc2nccc(-c3cccc(OCCc4ccccc4)c3)n2n1 [Example 180],0.35
21,COc1cccc([C@H](C)NC(=O)Nc2nc3nccc(-c4cccs4)n3n2)c1 [Example 181],0.43
22,C[C@H](NC(=O)Nc1nc2nccc(-c3cccs3)n2n1)c1ccc(O)cc1 [Example 182],0.28
23,CC(C)NC(=O)Nc1nc2nccc(-c3cccc(OCc4ccccn4)c3)n2n1 [Example 185],0.35
24,COc1ccc([C@H](C)NC(=O)Nc2nc3nccc(-c4cccc(OC)c4)n3n2)cc1 [Example 186],0.44
25,COc1cccc(-c2ccnc3nc(NC(=O)N[C@@H](C)CCCC(C)C)nn23)c1 [Example 188],0.08
26,CC(C)NC(=O)Nc1nc2nccc(-c3cccc(OCCN4CCOCC4)c3)n2n1 [Example 189],0.59
27,CC(C)NC(=O)Nc1nc2nccc(-c3cccc(OCCCN(C)C)c3)n2n1 [Example 192],0.9
